The source of these data is patent US7662781B2, “Immunopotentiating agent” (ECI, Inc., priority 2005, dated 2010).

The subject of test [1] is Lewis lung carcinoma (3LL). The experiment in a line: Lung metastasis system of intravenously injected 3LL. It counts as in vivo, C57BL/6 mice. The settings on record: 25 mg/mouse, twice a week. As to the method: By using a lung metastasis system of Lewis lung carcinoma (3LL), the tumor metastasis inhibition effect of eMIP was evaluated. Female C57BL/6 mice aged 7 weeks were employed. 10^6 3LL cells were injected into each animal via the tail vein. After 25 days, the lungs were taken out, weighed and fixed with Bouin' solution. Then, cancer tissues metastasized into the lungs were counted under a stereoscopic microscope. 30 minutes after the 3LL transplantation, eMIP was injected as the first administration followed by continuous administration once a week for 4 weeks. In the system wherein the administration was initiated 7 days after the 3LL transplantation, the effect of eMIP was examined. 5Fu employed as a control was administered twice a week.

The subject of test [2] is dendritic cell precursors. The settings on record: Yoneyama 2001; Zhang 2004; cited from earlier work.

As for `O=c1[nH]cc(F)c(=O)[nH]1` [5Fu], the “inhibition rate of metastasis into the lungs” value in test [1] was 78%.

B1: MIP-1α: molecule of about 70 amino acids belonging to the C—C chemokine family, ligand for CCR1 and CCR5 (protein, UniProt P10147 24-92, looked up)
C-C motif chemokine 3: SLAADTPTACCFSYTSRQIPQNFIADYFETSSQCSKPGVIFLTKRSRQVCADPSEEWVQKYVSDLELSA
Take B1: the “mobilization of dendritic cell precursors in the blood” value in test [2] is “several ten-fold”.
